According to patent US10941158B2, “Pyrazole ACC inhibitors and uses thereof” (Gilead Apollo, LLC, priority 2015, dated 2021):
≈ marks a conversion by molar mass, not a printed value. Like-named read-outs stand apart in the source and are kept apart here.

Assays:
C. krusei ATCC 6258 = assay: Anti-Fungal (Candida) Activity Assay, broth microtiter MIC; type: cell-based; details: Pichia kudriavzevii, ATCC6258; 3 replicates, MIC recorded at 48 h; read-out: MIC C. krusei ATCC 6258
Outline: (§1)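 Broth microdilution per CLSI M27-A3 in RPMI 1640 + MOPS, with inocula from colonies grown 24 h at 35 °C on Sabouraud dextrose agar and set by standard curve. Compounds came from 1 mg/mL DMSO stocks. MIC was read visually against the growth control at 48 h.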

[1] = tested on: C. parapsilosis ATCC 22019; assay: as above; type: cell-based; details: Lodderomyces parapsilosis, ATCC22019; 3 replicates, MIC recorded at 48 h; read-out: MIC C. parapsilosis ATCC 22019
Outline: as §1

C. albicans ATCC 90028 = assay: as above; type: cell-based; details: ATCC90028, 3 replicates, MIC recorded at 48 h, read-out: MIC C. albicans ATCC 90028
Outline: as §1

human (hACC2) ACC2 = human (hACC2) ACC2 (Homo sapiens, UniProt O00763); assay: In vitro Acetyl-CoA Carboxylase (ACC) inhibition assay (ADP-Glo), hACC2; type: biochemical
Chain of human (hACC2) ACC2 (O00763 whole entry): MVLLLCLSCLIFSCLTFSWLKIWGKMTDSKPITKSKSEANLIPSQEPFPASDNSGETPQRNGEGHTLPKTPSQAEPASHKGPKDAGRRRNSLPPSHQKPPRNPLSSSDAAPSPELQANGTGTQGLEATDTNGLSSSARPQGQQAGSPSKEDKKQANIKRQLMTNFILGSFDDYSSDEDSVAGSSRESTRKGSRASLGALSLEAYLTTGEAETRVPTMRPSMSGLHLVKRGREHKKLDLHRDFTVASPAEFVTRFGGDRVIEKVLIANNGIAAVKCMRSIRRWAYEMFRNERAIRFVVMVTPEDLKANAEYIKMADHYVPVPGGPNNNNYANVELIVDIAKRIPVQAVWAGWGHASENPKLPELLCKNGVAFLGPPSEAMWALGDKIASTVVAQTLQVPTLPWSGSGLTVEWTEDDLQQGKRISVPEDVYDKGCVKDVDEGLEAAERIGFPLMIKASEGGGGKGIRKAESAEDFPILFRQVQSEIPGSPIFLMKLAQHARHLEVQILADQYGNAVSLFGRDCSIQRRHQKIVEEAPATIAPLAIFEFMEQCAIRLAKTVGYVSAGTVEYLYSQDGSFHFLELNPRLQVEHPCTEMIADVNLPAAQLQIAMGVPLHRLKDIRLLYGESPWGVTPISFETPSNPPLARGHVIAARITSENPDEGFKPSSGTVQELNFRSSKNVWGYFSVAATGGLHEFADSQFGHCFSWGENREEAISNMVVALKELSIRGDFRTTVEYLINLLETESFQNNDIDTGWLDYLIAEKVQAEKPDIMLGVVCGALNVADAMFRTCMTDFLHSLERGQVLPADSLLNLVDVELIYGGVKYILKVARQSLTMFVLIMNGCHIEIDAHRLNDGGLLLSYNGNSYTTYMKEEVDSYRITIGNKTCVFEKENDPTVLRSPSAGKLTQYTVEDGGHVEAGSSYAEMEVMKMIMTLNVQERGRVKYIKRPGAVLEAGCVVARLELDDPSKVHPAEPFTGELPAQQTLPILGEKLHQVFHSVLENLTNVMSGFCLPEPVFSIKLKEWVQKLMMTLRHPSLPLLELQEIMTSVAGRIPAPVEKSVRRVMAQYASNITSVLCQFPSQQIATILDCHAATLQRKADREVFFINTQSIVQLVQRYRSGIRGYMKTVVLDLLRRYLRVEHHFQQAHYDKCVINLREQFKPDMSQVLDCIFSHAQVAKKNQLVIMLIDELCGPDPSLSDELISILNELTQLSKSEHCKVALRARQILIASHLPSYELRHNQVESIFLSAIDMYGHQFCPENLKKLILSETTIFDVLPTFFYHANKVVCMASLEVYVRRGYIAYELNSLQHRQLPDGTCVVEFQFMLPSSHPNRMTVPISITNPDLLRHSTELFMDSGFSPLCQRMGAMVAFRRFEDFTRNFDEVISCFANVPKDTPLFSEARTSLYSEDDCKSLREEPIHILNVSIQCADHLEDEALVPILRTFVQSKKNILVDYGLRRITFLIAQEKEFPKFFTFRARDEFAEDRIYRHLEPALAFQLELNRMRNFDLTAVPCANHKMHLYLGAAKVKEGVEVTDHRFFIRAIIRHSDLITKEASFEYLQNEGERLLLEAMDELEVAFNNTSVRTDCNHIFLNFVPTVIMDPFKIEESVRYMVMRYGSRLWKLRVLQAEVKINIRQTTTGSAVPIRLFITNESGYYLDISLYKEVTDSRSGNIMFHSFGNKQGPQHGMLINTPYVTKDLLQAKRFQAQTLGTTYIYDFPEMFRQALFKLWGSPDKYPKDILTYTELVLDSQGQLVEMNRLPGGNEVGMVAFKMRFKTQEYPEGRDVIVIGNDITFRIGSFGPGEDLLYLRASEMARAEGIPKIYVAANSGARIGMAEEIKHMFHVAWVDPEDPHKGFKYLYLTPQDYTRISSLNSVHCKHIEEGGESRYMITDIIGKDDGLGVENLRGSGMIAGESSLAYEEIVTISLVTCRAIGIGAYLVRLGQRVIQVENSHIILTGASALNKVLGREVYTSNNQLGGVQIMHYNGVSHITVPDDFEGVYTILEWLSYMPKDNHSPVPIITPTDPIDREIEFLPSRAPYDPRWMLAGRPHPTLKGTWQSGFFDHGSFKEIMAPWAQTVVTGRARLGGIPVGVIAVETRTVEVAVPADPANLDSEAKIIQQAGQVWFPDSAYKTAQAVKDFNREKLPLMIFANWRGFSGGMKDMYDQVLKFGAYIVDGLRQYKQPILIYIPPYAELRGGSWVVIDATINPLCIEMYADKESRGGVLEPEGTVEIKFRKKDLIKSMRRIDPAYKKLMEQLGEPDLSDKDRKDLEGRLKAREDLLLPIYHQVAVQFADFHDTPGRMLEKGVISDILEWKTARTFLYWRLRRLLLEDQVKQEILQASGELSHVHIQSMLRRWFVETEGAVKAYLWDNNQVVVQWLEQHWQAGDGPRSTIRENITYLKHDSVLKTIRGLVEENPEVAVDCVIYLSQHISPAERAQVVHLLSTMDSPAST
Procedure: The detailed procedure is as follows. […] 10 μL ADP glo reagent was added. […] 20 μL kinase detection reagent was added.
“NA” stands for “not assayed.”

fungal (fACC2) ACC2 = fungal (fACC2) ACC2 (UniProt Q00955); details: read-out: fACC2 IC50; fungal ACC2, ADP-Glo
Chain of fungal (fACC2) ACC2 (Q00955 whole entry): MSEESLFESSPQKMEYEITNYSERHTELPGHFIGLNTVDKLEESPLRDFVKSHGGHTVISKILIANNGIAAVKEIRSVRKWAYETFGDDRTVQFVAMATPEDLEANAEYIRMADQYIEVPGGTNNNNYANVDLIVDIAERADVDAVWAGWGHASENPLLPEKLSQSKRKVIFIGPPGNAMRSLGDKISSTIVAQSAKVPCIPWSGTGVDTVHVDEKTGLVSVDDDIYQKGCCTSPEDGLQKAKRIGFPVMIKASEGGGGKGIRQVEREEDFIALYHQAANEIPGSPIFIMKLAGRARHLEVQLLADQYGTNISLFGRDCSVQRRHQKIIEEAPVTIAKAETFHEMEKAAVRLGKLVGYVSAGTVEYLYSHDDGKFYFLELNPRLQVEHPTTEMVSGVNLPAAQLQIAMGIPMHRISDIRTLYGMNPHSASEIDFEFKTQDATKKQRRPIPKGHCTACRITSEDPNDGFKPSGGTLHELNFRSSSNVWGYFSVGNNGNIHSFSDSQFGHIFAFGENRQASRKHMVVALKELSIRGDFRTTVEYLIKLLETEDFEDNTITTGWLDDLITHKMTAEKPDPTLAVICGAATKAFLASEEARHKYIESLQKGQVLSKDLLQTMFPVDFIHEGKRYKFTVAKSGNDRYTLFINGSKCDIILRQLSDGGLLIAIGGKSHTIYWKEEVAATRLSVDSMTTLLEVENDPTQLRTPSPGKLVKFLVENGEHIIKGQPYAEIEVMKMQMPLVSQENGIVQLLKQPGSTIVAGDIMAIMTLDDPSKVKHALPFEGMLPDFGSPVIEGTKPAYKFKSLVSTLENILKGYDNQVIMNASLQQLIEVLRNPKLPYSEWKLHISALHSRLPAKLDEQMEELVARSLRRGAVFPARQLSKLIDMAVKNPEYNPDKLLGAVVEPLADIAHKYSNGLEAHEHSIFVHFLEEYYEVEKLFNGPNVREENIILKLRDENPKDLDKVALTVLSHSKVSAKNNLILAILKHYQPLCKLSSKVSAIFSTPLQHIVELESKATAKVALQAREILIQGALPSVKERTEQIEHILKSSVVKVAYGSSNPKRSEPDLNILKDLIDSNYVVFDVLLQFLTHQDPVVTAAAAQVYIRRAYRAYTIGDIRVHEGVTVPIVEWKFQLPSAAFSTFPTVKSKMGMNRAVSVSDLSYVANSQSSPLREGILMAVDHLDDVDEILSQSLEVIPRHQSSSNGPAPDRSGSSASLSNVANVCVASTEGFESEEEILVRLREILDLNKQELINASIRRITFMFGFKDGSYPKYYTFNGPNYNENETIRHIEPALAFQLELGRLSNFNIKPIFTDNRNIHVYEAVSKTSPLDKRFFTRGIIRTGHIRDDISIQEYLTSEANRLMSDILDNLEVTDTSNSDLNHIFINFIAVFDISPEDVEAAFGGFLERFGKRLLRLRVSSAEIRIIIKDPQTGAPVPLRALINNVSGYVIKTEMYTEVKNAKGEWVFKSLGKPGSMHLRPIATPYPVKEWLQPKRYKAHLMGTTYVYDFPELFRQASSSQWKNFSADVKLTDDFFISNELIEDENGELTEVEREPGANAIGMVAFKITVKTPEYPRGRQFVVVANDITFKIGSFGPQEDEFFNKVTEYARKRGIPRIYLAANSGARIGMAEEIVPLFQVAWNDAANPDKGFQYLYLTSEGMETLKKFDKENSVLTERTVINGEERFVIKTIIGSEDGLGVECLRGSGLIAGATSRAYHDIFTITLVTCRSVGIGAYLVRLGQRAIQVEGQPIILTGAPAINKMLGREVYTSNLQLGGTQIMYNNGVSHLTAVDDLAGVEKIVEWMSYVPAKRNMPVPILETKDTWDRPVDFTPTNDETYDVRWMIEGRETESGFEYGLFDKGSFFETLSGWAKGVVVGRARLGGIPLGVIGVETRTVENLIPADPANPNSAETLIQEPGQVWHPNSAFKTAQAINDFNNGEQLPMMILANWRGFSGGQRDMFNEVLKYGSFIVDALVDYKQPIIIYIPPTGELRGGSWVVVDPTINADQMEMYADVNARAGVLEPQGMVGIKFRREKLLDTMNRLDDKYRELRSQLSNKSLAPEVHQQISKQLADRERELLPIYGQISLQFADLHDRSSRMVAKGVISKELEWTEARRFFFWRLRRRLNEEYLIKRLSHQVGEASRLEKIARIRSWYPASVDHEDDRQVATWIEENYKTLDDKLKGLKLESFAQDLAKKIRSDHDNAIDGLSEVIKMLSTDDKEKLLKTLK
Procedure: An exemplary procedure for the in vitro ACC inhibition assay, which can be used to determine the inhibitory action of compounds of the invention toward either human (hACC2) or fungal (fACC2) ACC2, follows. The ADP-Glo™ Kinase Assay kit from Promega was used. The ADP-Glo™ Kinase Assay is a luminescent ADP detection assay to measure enzymatic activity by quantifying the amount of ADP produced during an enzyme reaction. The assay is performed in two steps; first, after the enzyme reaction, an equal volume of ADP-Glo™ Reagent is added to terminate the reaction and deplete the remaining ATP. Second, the Kinase Detection Reagent is added to simultaneously convert ADP to ATP and allow the newly synthesized ATP to be measured using a luciferase/luciferin reaction. Luminescence can be correlated to ADP concentrations by using an ATP-to-ADP conversion curve. The detailed procedure is as follows. 50 μL of the compound being tested (600 μM in DMSO) was added to a 384-well dilution plate. The compound was diluted 1:3 in succession in DMSO for each row for 11 wells. 0.5 μL ACC2 working solution was added to 384-well white Optiplate assay plate. 0.5 μL diluted compound solution in each column from step 2 was added to assay plate, each row containing 2 replicates. […] The plates were incubated at room temperature for 15 minutes. 5 μL substrate working solution was added to each well to initiate reaction. Final ACC2 reaction concentrations consist of: 5 nM ACC2, 20 μM ATP, 20 μM acetyl-CoA, 12 mM NaHCO3, 0.01% Brij35, 2 mM DTT, 5% DMSO, test compound concentrations: 30 μM, 10 μM, 3.33 μM, 1.11 μM, 0.37 μM, 0.123 μM, 0.0411 μM, 0.0137 μM, 0.00457 μM, 0.00152 μM, and 0.00051 μM. Plates were incubated at room temperature for 60 minutes. 10 μL ADP glo reagent was added. Plates were incubated at room temperature for 40 minutes. 20 μL kinase detection reagent was added. Plates were incubated at room temperature for 40 minutes, and then read on a Perkin Elmer EnVision 2104 plate reader for luminescence as Relative Light Units (RLU).
Data for each concentration, as well as the positive and negative controls were averaged, and the standard deviation calculated. Percent inhibition was calculated by the formula: 100×(average negative control−compound)/(average negative control−average positive control). The IC50 for each compound was calculated by fitting the data with a non-linear regression equation: Y=Bottom+(Top-Bottom)/(1+10^((Log IC50−X)*Hill Slope)), where X is the log of compound concentration and Y is percent inhibition.
Compounds having an activity designated as “AA” provided an IC50 0.0006-0.003 μM; provided an “A” provided an IC50 0.003-0.01 μM; compounds having an activity designated as “B” provided an IC50 0.01-0.04 μM; and compounds having an activity designated as “C” provided an IC50>0.04 μM IC50. “NA” stands for “not assayed.”

[2] = tested on: Phytophthora capsici (Pc); assay: Growth inhibition assay of fungal pathogens; type: cell-based; details: Phytophthora capsici, Table 4b, read-out: Concentration at 90% Inhibition Pc
Outline: (§2)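 Liquid-culture assay in which test compounds are applied at three final concentrations (50, 10, 2 ppm or 2, 0.4, 0.08 ppm). Inoculum levels follow 48 h growth curves for each fungus. Growth is monitored by OD600 and by eye, and the 48 h values give % inhibition against DMSO.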

Septoria tritici (St) = assay: Growth inhibition assay of fungal pathogens; type: cell-based; details: Zymoseptoria tritici, Table 4b, read-out: Concentration at 90% Inhibition St
Outline: as §2

Rhizoctonia solani (Rs) = assay: Growth inhibition assay of fungal pathogens; type: cell-based; details: 48 h, Table 4b, read-out: Concentration at 90% Inhibition Rs
Outline: as §2

[3] = tested on: Fusarium moniliforme (Fm); assay: Growth inhibition assay of fungal pathogens; type: cell-based; details: Fusarium verticillioides, 48 h, read-out: Concentration at 90% Inhibition Fm
Outline: as §2

Diplodia maydis (Dm) = assay: Growth inhibition assay of fungal pathogens; type: cell-based; details: Stenocarpella maydis, 48 h, Table 4b, read-out: Concentration at 90% Inhibition Dm
Outline: as §2

Botrtyis cinerea (Bc) = assay: Growth inhibition assay of fungal pathogens; type: cell-based; details: 48 h, Table 4b, read-out: Concentration at 90% Inhibition Bc
Outline: as §2

[4] = tested on: Fusarium virguliforme (Fv); assay: Growth inhibition assay of fungal pathogens; type: cell-based; details: 48 h
Outline: as §2

[5] = tested on: Collectotrichum graminicola (Cg); assay: Growth inhibition assay of fungal pathogens; type: cell-based; details: 48 h, Table 4b, read-out: Concentration at 90% Inhibition Cg
Outline: as §2

[6] = Table 4b, 48 hours, read-out: Concentration at 90% Inhibition Fv

SMILES | MIC (C. krusei ATCC 6258) [µg/mL] | MIC [1] [µg/mL] | MIC (C. albicans ATCC 90028) [µg/mL] | IC50 (human (hACC2) ACC2) [nM] | IC50 (fungal (fACC2) ACC2) [nM] | IC90 ([2]; 48 hours) [µg/mL] | IC90 (Septoria tritici (St); 48 hours) [µg/mL] | IC90 (Rhizoctonia solani (Rs)) [µg/mL] | IC90 ([3]; Table 4b, 48 hours) [µg/mL] | IC90 (Diplodia maydis (Dm)) [µg/mL] | IC90 (Botrtyis cinerea (Bc)) [µg/mL] | IC90 [4, 6] [µg/mL] | IC90 [5] [µg/mL] | IC90 ([2]; 48 h) [µg/mL] | IC90 (Septoria tritici (St); 48 h) [µg/mL] | IC90 [3] [µg/mL] | IC90 ([4]; read-out: Concentration at 90% Inhibition Fv, Table 4b, 48 hours) [µg/mL]
COCCO[C@@H](Cn1c(=O)n(C(C)C(=O)NC(C)C)c(=O)c2c(C)c(-n3cccn3)sc21)c1cc(F)ccc1OC (stereo partly drawn) [Compound I-55] | 2.1 to 4 (≈ 3.57 to 6.81 µM) | 2.1 to 4 (≈ 3.57 to 6.81 µM) | 2.1 to 4 (≈ 3.57 to 6.81 µM) | 3 to 10 | 0.6 to 3 | – | – | – | – | – | – | – | – | – | – | – | –
COCCO[C@@H](Cn1c(=O)n(C(C)C(N)=O)c(=O)c2c(C)c(-n3cccn3)sc21)c1cc(F)ccc1OC (stereo partly drawn) [Compound I-56] | > 4.1 | > 4.1 | > 4.1 | > 40 | 10 to 40 | – | – | – | – | – | – | – | – | – | – | – | –
COCCO[C@@H](Cn1c(=O)n(C(C)C(=O)O)c(=O)c2c(C)c(-n3cccn3)sc21)c1cc(F)ccc1OC (stereo partly drawn) [Compound I-57] | > 4.1 | > 4.1 | > 4.1 | 10 to 40 | 10 to 40 | – | – | – | – | – | – | – | – | – | – | – | –
COc1ccc(F)cc1[C@H](Cn1c(=O)n(C(C)C(=O)N2CCCC2)c(=O)c2c(C)c(-n3cccn3)sc21)OCCO (stereo partly drawn) [Compound I-58] | 2.1 to 4 (≈ 3.59 to 6.83 µM) | > 4.1 | > 4.1 | 3 to 10 | 0.6 to 3 | – | – | – | – | – | – | – | – | – | – | – | –
COc1ccc(F)cc1[C@H](Cn1c(=O)n(C(C)C(=O)NC(C)C)c(=O)c2c(C)c(-n3cccn3)sc21)OCCO (stereo partly drawn) [Compound I-59] | > 4.1 | > 4.1 | > 4.1 | 3 to 10 | 0.6 to 3 | – | – | – | – | – | – | – | – | – | – | – | –
COc1ccc(F)cc1[C@H](Cn1c(=O)n(C(C)C(=O)O)c(=O)c2c(C)c(-n3cccn3)sc21)OCCO (stereo partly drawn) [Compound I-60] | > 4.1 | > 4.1 | > 4.1 | 3 to 10 | 0.6 to 3 | – | – | – | – | – | – | – | – | – | – | – | –
COCCO[C@@H](Cn1c(=O)n([C@@H](C)C(=O)N2CCCC2)c(=O)c2c(C)c(-n3cccn3)sc21)c1cc(F)ccc1OC [Compound I-75, 1-((R)-2-(5-fluoro-2-methoxyphenyl)-2-(2-methoxyethoxy)ethyl)-5-methyl-3-((S)-1-oxo-1-(pyrrolidin-1-yl)propan-2-yl)-6-(1H-pyrazol-1-yl)thieno[2,3-d]pyrimidine-2,4(1H,3H)-dione] | – | – | – | 3 to 10 | 0.6 to 3 | > 50 | > 50 | 0.08 (≈ 0.133 µM) | 0.08 (≈ 0.133 µM) | 2 (≈ 3.34 µM) | 2 (≈ 3.34 µM) | 0.4 (≈ 0.667 µM) | 2 (≈ 3.34 µM) | – | – | – | –
COc1ccc(F)cc1[C@H](Cn1c(=O)n(C(C)(C)C(=O)NC(C)C)c(=O)c2c(C)c(-n3cccn3)sc21)OCCC#N [Compound I-78, (R)-2-(1-(2-(2-cyanoethoxy)-2-(5-fluoro-2-methoxyphenyl)ethyl)-5-methyl-2,4-dioxo-6-(1H-pyrazol-1-yl)-1,4-dihydrothieno[2,3-d]pyrimidin-3(2H)-yl)-N-isopropyl-2-methylpropanamide] | – | – | – | 10 to 40 | 0.6 to 3 | – | – | 10 (≈ 16.8 µM) | – | > 50 | 10 (≈ 16.8 µM) | – | > 50 | > 50 | > 50 | 10 (≈ 16.8 µM) | > 50
COc1ccccc1[C@H](Cn1c(=O)n(C(C)(C)C(=O)O)c(=O)c2c(C)c(-n3cccn3)sc21)OCCC#N [Compound I-79] | – | – | – | 3 to 10 | 0.6 to 3 | > 50 | 10 (≈ 18.6 µM) | 0.08 (≈ 0.149 µM) | 0.08 (≈ 0.149 µM) | 0.4 (≈ 0.744 µM) | 0.4 (≈ 0.744 µM) | 0.4 (≈ 0.744 µM) | 0.4 (≈ 0.744 µM) | – | – | – | –
